Reference: patent US11291654B2, “Formulations of cycloserine compounds and applications thereof” (SyneuRx International (Taiwan) Corp., priority 2018, dated 2022)
Where two headings read alike, the source gives them in different places.

Assay type: physicochemical
Procedure: 1. Stress Testing of D-cycloserine Stability test was held with 500 mg of commercially available D-cycloserine from Macleods Pharma, opened and stored under high humidity (>90% RH or 75% RH) at room temperature, a high temperature (40° C. or 60° C.) or a light condition for 10 days. […] In the following experiments, the total impurity was set up to confirm the stability of D-cycloserine.

## N[C@H]1CONC1=O (stereo in doubt) [D-cycloserine (Macleods Pharma), 4-amino-3-isoxazolidinone]
0 day
  Appearance: White Powder
  Total Impurity (%): 0.59%
25° C., 75% RH, 10 days
  Moisture-absorption Weight Gain (%): 0.25%
  Total Impurity (%): 1.71%
25° C., >90% RH, 10 days
  Moisture-absorption Weight Gain (%): 21.11%
  Total Impurity (%): 86.64%
40° C., 10 days
  Appearance: White Powder
  Total Impurity (%): 0.70%
60° C., 10 days
  Appearance: White Powder
  Total Impurity (%): 0.66%
10 days
  Stability (in words): relatively stable at 40 °C and 60 °C
Light, 10 days
  Appearance: White Powder
  Total Impurity (%): 0.96%
